Reference: paper PMC3351444, “Molecular Evolution of a Peptide GPCR Ligand Driven by Artificial Neural Networks” (PLoS ONE, 2012)
Read-outs that look alike come from different tables or passages of the source. Square brackets hold non-standard residues; d marks the D form. Peptide text beside a SMILES is read from it.

What was measured:
[1] = In vitro peptide stability in human serum (RP-HPLC); conditions: human, human serum, 25% (v/v) in RPMI
Method: The initial time is recorded, and at known time intervals 50 µL of the reaction solution is removed and added to 100 µL of 6% aqueous trichloroacetic acid (TCA) for precipitation of serum proteins. […] The reaction supernatant is then analyzed using RP-HPLC (Agilent 1200 LC System) on a ZORBAX Eclipse XDB-C18, 4.6×150 mm, 5 µm column (Agilent). […] Fluorescence is detected at an excitation wavelength of 280 nm and emission wavelength of 340 nm. Kinetic analysis was carried out by least-squares analysis of the logarithm of the integration peak area versus time.

human CMKLR1 = target: T1, human CMKLR1 (Homo sapiens, UniProt Q99788); assay: Ca2+ mobilization (CellLux imaging) agonist assay in HEK293A cells expressing CMKLR1 and Gα15; format: cell-based
T1 construct: host or cells: HEK293A (Invitrogen), stably expressing human Gα15
T1 sequence (Q99788 1-373): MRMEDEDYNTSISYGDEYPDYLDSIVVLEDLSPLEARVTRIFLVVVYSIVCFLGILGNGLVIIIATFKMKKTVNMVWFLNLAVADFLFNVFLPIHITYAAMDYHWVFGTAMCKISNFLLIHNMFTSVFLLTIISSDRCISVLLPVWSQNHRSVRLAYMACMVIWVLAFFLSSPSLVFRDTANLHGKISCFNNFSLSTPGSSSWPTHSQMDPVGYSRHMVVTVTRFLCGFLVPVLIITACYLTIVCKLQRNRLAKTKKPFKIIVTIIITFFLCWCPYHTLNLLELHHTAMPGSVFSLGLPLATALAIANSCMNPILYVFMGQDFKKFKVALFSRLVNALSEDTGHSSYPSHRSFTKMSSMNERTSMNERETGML
Method in brief: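 Agonist-evoked Ca2+ rise, read as FLUO4-AM fluorescence by imaging, in HEK293A cells carrying CMKLR1 plus Gα15. Peptides were diluted in C1 solution (pH 7.4) containing 0.1% BSA. Duplicate signals were averaged, corrected for buffer wells and normalized to background, and EC50 was fitted from amplitude versus concentration.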

[2] = Ca2+ mobilization, CMKLR1, decimal comma
[3] = Ca2+ mobilization, CMKLR1, decimal comma, NR where no EC50 is given, read-out: EC50

| half-life at 50 µg/mL [1] [h] | EC50 (human CMKLR1; intracellular calcium mobilization, HEK293 cells expressing CMKLR1, mean of three independent experiments ± SD, read-out: activity: EC50 ±SD) [nM] | max response (human CMKLR1; [2]) | EC50 (human CMKLR1; [3]) [nM] | SMILES |
| --- | --- | --- | --- | --- |
| 1.83 ± 0.433 | 4.42 ± 3.41 |  |  | CC(C)C[C@H](NC(=O)[C@@H](N)Cc1ccc(O)cc1)C(=O)N1CCC[C@H]1C(=O)N[C@H](C)C(=O)N[C@@H](CCC(N)=O)C(=O)N[C@@H](Cc1ccc(O)cc1)C(=O)N[C@@H](C)C(=O)N[C@@H](Cc1ccccc1)C(=O)N[C@H](CO)C(=O)O [YLPaQYAFs] (H-YLP[dA]QYAF[dS]-OH; N-terminus assumed) |
| 0.6 |  | 1,77 DF/F0 | 0.21 | CC(C)C[C@H](NC(=O)[C@@H](N)Cc1ccc(O)cc1)C(=O)N1CCC[C@H]1C(=O)NCC(=O)N[C@@H](CCC(N)=O)C(=O)N[C@@H](Cc1ccc(O)cc1)C(=O)N[C@@H](C)C(=O)N[C@@H](Cc1ccccc1)C(=O)N[C@H](Cc1ccccc1)C(=O)O [compound 80] (H-YLPGQYAF[dF]-OH; N-terminus assumed) |
| 2.52 |  | 1,58 DF/F0 | 53.6 | CC(C)[C@H](NC(=O)[C@H](N)Cc1ccc(O)cc1)C(=O)N1CCC[C@H]1C(=O)NCC(=O)N[C@@H](CCC(N)=O)C(=O)N[C@@H](Cc1ccc(O)cc1)C(=O)N[C@@H](C)C(=O)N[C@@H](Cc1ccccc1)C(=O)N[C@@H](CO)C(=O)O [compound 91] (H-[dY]VPGQYAFS-OH; N-terminus assumed) |
| 3.83 |  | 0,73 DF/F0 | 92.9 | CC(C)C[C@H](NC(=O)[C@H](N)Cc1ccccc1)C(=O)N1CCC[C@H]1C(=O)NCC(=O)N[C@@H](CCC(N)=O)C(=O)N[C@@H](Cc1ccc(O)cc1)C(=O)N[C@@H](C)C(=O)N[C@@H](Cc1ccccc1)C(=O)N[C@@H](Cc1ccccc1)C(=O)O [compound 55] (H-[dF]LPGQYAFF-OH; N-terminus assumed) |
| 1.35 |  | 1,56 DF/F0 | 145 | CC(C)C[C@H](NC(=O)[C@@H](N)CC(C)C)C(=O)N[C@@H](Cc1ccc(O)cc1)C(=O)N[C@H](Cc1c[nH]c2ccccc12)C(=O)N1CCC[C@H]1C(=O)N[C@@H](Cc1ccc(O)cc1)C(=O)N[C@@H](C)C(=O)N[C@@H](CCCCN)C(=O)N[C@H](CO)C(=O)O [compound 144] (H-LLY[dW]PYAK[dS]-OH; N-terminus assumed) |
| 9.18 |  | 1,67 DF/F0 | 53.2 | CC(C)C[C@H](N)C(=O)N[C@H](Cc1c[nH]c2ccccc12)C(=O)NCC(=O)NCC(=O)N1CCC[C@H]1C(=O)N[C@@H](Cc1ccc(O)cc1)C(=O)N[C@@H](C)C(=O)N[C@H](CC(=O)O)C(=O)N[C@@H](CO)C(=O)O [compound 131] (H-L[dW]GGPYA[dD]S-OH; N-terminus assumed) |
| 0.5 |  | 1,51 DF/F0 | 271 | CC(C)C[C@H](NC(=O)[C@@H]1CCCN1)C(=O)N[C@H](CCC(N)=O)C(=O)N[C@@H](Cc1ccc(O)cc1)C(=O)N1CCC[C@H]1C(=O)N[C@@H](Cc1ccc(O)cc1)C(=O)N[C@H](CS)C(=O)N[C@@H](CC(C)C)C(=O)N[C@H](Cc1ccccc1)C(=O)O [compound 149] (H-PL[dQ]YPY[dC]L[dF]-OH; N-terminus assumed) |
| 6.03 |  | 1,97 DF/F0 | 1060 | CC(C)[C@H](NC(=O)[C@@H](Cc1ccc(O)cc1)NC(=O)[C@H](CO)NC(=O)[C@@H]1CCCN1)C(=O)N1CCC[C@H]1C(=O)NCC(=O)N[C@@H](CCC(N)=O)C(=O)N[C@@H](Cc1ccc(O)cc1)C(=O)N[C@@H](C)C(=O)O [compound 107] (H-PS[dY]VPGQYA-OH; N-terminus assumed) |
| 0.683 |  | 0,73 DF/F0 | 456 | CC(C)C[C@H](NC(=O)[C@@H](N)Cc1ccccc1)C(=O)N1CCC[C@H]1C(=O)NCC(=O)N[C@@H](CCC(N)=O)C(=O)NCC(=O)N[C@H](Cc1ccccc1)C(=O)N[C@@H](Cc1ccccc1)C(=O)N[C@@H](CO)C(=O)O [compound 61] (H-FLPGQG[dF]FS-OH; N-terminus assumed) |
